The values that follow come from a melting point compilation (Tetko et al.; mined from patent text by program, amines drawn as free bases though some values may be those of a salt).

A value given as a limit tells only on which side of the number the result lay.

Usually melting point stands for the temperature of the solid-liquid transition. In turn, `CC(=O)C1(C)CCc2c(C)c(O)c(C)c(C)c2O1` (stereo unspecified) registered a melting point of 97 to 98 °C.

The compound `CON1CCC2(CC1)NC(=O)C(F)(c1cc(C)ccc1C)C2=O` (stereo unspecified) showed a melting point of 127 to 130 °C. Consider `O=C(c1cccs1)c1cnn2c(-c3cccc(-c4ccc(CN5CCOCC5)cc4)c3)ccnc12`, for which the melting point is 175 to 178 °C. Under `COc1c(C)c(C)c2c(c1C)C(CO)C(C)(C)O2` (stereo unspecified) stands 79 to 81 °C; under `COc1cc2c(cc1Br)C(C)(C)CCC2(C)C`, 77 to 78 °C; under `Nc1ccc(C(=O)c2cccc3c2NCC3)cc1`, 133 to 135 °C. Under `CCCN(CCC)S(=O)(=O)c1cc(-c2csc(=Nc3ccc(C)cc3C)n2C)ccc1Cl` stands 139 to 141 °C. Turning to `COc1ccc2c(-c3ccc(OCCN4CCOCC4)cc3)c(Cc3ccc(Cl)cc3)oc2c1`, the melting point lay in the range of 126 to 128 °C. `O=C(O)c1cc(NC(=O)C(CS)Cc2ccccc2)c[nH]1` (stereo unspecified) registered a melting point of 169 to 172 °C. On to `CCOCCOc1ccc(CCNC(=O)OC(C)(C)C)cc1`, for which the melting point was in the range of 56 to 57 °C. As to `CCc1nc2c(NC(=O)C(C)(C)C)nc3ccccc3c2n1CCCCNS(C)(=O)=O`, the melting point lay in the range of 220 to 221 °C. The compound `O=[N+]([O-])c1cccc2c1nc(-c1c(F)cccc1F)n2Cc1c(F)cccc1F` gave a melting point of 168 to 170 °C. Turning to `COc1nc(Br)cnc1NS(=O)(=O)c1cccc2c(NC(=O)OCc3ccccc3)cccc12`, the melting point fell in the range of 226 to 228 °C.

Compound `CCOC(=O)/C=C\C(=O)Oc1cccc(-c2cn3c(n2)sc2ccccc23)c1` registered a melting point of 126 to 128 °C. Under `Cc1cccc(NC(=O)OC(C)(C)C)c1CNc1cccn2c(C)c(C)nc12` stands 128 to 131 °C; under `CCOP(=O)(OCC)C(CNc1nc(C)cc(Oc2ccc(Cl)cc2Cl)n1)P(=O)(OCC)OCC`, 76 to 77 °C. Turning to `CCN(CC)Cn1cnc2c1c(=O)n(C)c(=O)n2C`, the melting point lay in the range of 114 to 115 °C. `COC(/C=C/c1cccc(Cl)c1)=N/c1ccc(C(O)c2cncn2Cc2ccc(C#N)cc2)cc1` (stereo unspecified) came in with a melting point of 192 °C. In the case of `COc1ccc(Oc2cccc(C3C4=C(CC(C)(C)CC4=O)NC4=C3C(=O)CC(C)(C)C4)c2)cc1`, the melting point was in the range of 210 to 212 °C. `COc1ccc(-c2cc(C(F)(F)F)n3ncc(C(=O)Nc4cccc(S(=O)(=O)N5CCOCC5)c4)c3n2)cc1` came in with a melting point of 203 °C. For the compound `CCn1ncc2c1ncc1c(N3CCCCC3)nc3cc(C)nn3c12`, the melting point was 176 to 177 °C. Under `CCOC(=O)C1=C(C#N)NC(C)=C(C(=O)OCCN(CC)CC)C1c1cccc([N+](=O)[O-])c1` (stereo unspecified) stands 150 to 152 °C; under `CCCCc1c[nH]c(S(C)=O)c1[N+](=O)[O-]` (stereo unspecified), 133 to 134 °C. For `CCc1nn(-c2ccc3cc(-c4ccc(-n5cnnc5)cc4)c(=O)oc3c2)nc1C`, the melting point lay in the range of 321 to 323 °C. Turning to `Cc1nc(-n2ccn(Cc3ccc(C(F)(F)F)cc3)c2=O)sc1C(=O)NCc1cccnc1`, the melting point is 163 to 164 °C.

`FC(F)Sc1nnc(-c2ccccn2)s1`: the melting point is 90 to 92 °C. Under `COc1ccc2oc(C(=O)OCC(C)(C)C(=O)C(C)(C)C)cc2c1` stands 81.5 to 82.5 °C. Under `C#CCN(C(=O)OC)C1CN(C(=O)Nc2ccc(OC(F)(F)F)cc2)N=C1c1ccc(Cl)cc1` (stereo unspecified) stands 184 to 185 °C. Under `COc1ccc2nc(Cl)nc(Nc3ccccc3)c2c1` stands 177 to 179 °C. `O=C(O)C1=Cc2cc(Br)cc(F)c2OC1C(F)(F)F` (stereo unspecified) came in with a melting point of 206 to 208 °C. Under `CON=C1CN(c2nc3c(cc2F)c(=O)c(C(=O)O)cn3C2CC2)CC12CN(C(=O)OC(C)(C)C)C2` stands 278 to 279 °C; under `CCOC(=O)C(N=CC1C=C(Cl)C=CC1(OC(C)=O)c1ccccc1)C(=O)OCC` (stereo unspecified), 85 to 87 °C; under `CCCCCCC(=N)NC(=S)Nc1ccc(Cl)cc1`, 112 to 113 °C. For the compound `CN1CCCCc2cc(-c3cnc(N)nc3N)ccc21`, the melting point fell in the range of 206 to 207 °C. The compound `CN(C)C=C(C#N)C(=O)c1ccsc1` had a melting point of 118 to 119 °C. `Cn1cc(C(=O)O)c(=O)c2cc(F)c(N3CCNCC3)cc21` displayed a melting point of 310 °C. The compound `COc1ccc2cc(C(C)C(=O)OCCC3(C)CCc4c(C)c(O)c(C)c(C)c4O3)ccc2c1` (stereo unspecified) displayed a melting point of 99.5 to 102 °C. Under `Cc1cccc(C)c1NC(=O)c1cc(C)n(C)n1` stands 155 °C; under `CCCC1=NN(c2ccc(C(=O)N(CC)CC)cc2)C(=O)C1=CNc1ccccc1CC`, 123 °C. Consider `O=[N+]([O-])c1ccc(Sc2ncc[nH]2)cc1`, for which the melting point lay within 207 to 209 °C.

Compound `CN1Cc2[nH]c3ccccc3c2C1` returned a melting point of 110 to 120 °C.

Compound `COC(=O)c1nc(-c2ccc(Cl)c(OC)c2F)cc(N)c1OC` yielded a melting point of 114 to 118 °C. Under `CCOC(=O)N1CCC(NC(=S)Nc2cccnc2NCc2ccco2)CC1` stands 133 °C. `COC(=O)c1cc(C)c(-c2cccc(O)c2C)c(C)c1`: the melting point came out at 149 °C. As to `COc1cc(OC)c(-c2nc(NC(=O)c3cc4ccccc4[nH]3)sc2C)cc1Cl`, the melting point turned out to be 249 °C. Under `CN(C(=O)c1cc(-c2ccccc2)c2sccc2c1)c1ccccc1` stands 127 °C. Turning to `CCNC(=O)Nc1ccc(-c2sc3c(c2CN(C)CCOC)c(=O)n(-c2ccc(OCCOC)c(OCCOC)c2)c(=O)n3Cc2c(F)cccc2F)cc1`, the melting point lay in the range of 206 to 208 °C.

Regarding `CCOC(=O)CCc1ccc2oc(Cc3ccc4ccccc4c3)nc2c1`, the melting point lay in the range of 81 to 82 °C.

Compound `CC(=O)c1c(O)ccc2c(C)cc(=O)oc12` yielded a melting point of 167 to 169 °C.

In turn, `CON(C)S(=O)(=O)c1ccccc1[N+](=O)[O-]` displayed a melting point of 105 to 106 °C. Compound `CC(C)(C)OC(=O)NCC(O)CN` (stereo unspecified) gave a melting point of 77 to 79 °C. Turning to `CC#CCOc1cc(OCC#CCC)ncn1`, the melting point amounted to 67.4 °C. In turn, `O=c1[nH]c2cc(Cl)ccc2c(O)c1-c1ccc(/C=C\c2ccccc2)cc1` showed a melting point of 284 to 286 °C. With `CCCCOc1ncc(C(C)=O)cc1-c1nc2c(CC)n(C3CN(C(=O)OC(C)(C)C)C3)nc2c(=O)[nH]1`, the melting point lay in the range of 176 to 178 °C. On to `CN(C)C(=O)Nc1nc2ccccc2s1`, for which the melting point fell in the range of 214 to 216 °C.

Turning to `CSc1cncc(-c2nc(=O)c3ccccc3s2)n1`, the melting point lay in the range of 202 to 203 °C.

In turn, `CCCC[C@H]1CC[C@H](OC(=O)c2cc(Sc3ccc(C)cc3)c3c(c2N)C(=O)c2ccccc2C3=O)CC1` had a melting point of 176 to 177 °C.

For `CC(C)(C)OC(=O)NN(Cc1ccc(-c2cnccn2)cc1)C[C@H](O)[C@@H](N)Cc1ccccc1`, the melting point was 146 to 148 °C. Take `COc1cc2ccccc2cc1C(=O)NNC(=O)c1cc2ccccc2cc1OC`: the melting point lay within 260 to 263 °C.

Consider `CON(c1ccc([N+](=O)[O-])cc1F)S(=O)(=O)c1ccc(Cl)c(C(F)(F)F)c1`, for which the melting point is 104 to 106 °C.

`CN1CCc2c(cccc2NC(=O)c2ccccc2[N+](=O)[O-])C1`: the melting point was 196 to 198 °C. In the case of `Cc1c(Sc2ccccc2C(F)(F)F)c2cc(NS(C)(=O)=O)ccc2n1CC(=O)O`, the melting point was 207 °C. As to `Cc1cc(O)n2nc(CN)nc2n1`, the melting point is 204 to 207 °C. Turning to `NS(=O)(=O)c1ccc(N2CC(=O)N(c3ccccc3)C2=O)cc1`, the melting point fell in the range of 255 to 257 °C. `COc1ccc(C(OCC2OC(n3cnc4c(=O)[nH]c(NC(=O)Cc5ccc(Cl)c(Cl)c5)nc43)CC2O)(c2ccccc2)c2ccc(OC)cc2)cc1` (stereo unspecified) returned a melting point of 150 to 155 °C.

On to `CCCCCCOc1ccc2c(c1)c(CC(=O)O)c(C)n2Cc1ccc(Cl)cc1`, for which the melting point is 148 to 150 °C. Turning to `CC(C)Cn1cnc2c(N)nc3ccc(-c4ccc(C(C)(C)C)cc4)cc3c21`, the melting point was above 250 °C. Regarding `CCOC(C)n1c(C(=O)C(F)(F)F)nc(-c2ccc(OC)cc2)c1-c1ccc(OC)cc1` (stereo unspecified), the melting point fell in the range of 124 to 126 °C. Under `O=C(Nc1ccc(C(=O)N2CCCCc3cc(Cl)ccc32)cn1)c1ccccc1OCCCCO` stands 157 to 158 °C; under `COC(=O)CCCc1cc2nc(Cl)ccc2n1S(=O)(=O)c1ccc(C(C)C)cc1`, 75 °C. Take `CC(Oc1ccc([N+](=O)[O-])cc1F)c1c(Cl)ccc(F)c1Cl` (stereo unspecified): the melting point is 110 °C. Turning to `Cc1ccc(S(=O)(=O)OCC2COc3cccc4[nH]c(=O)n2c34)cc1` (stereo unspecified), the melting point fell in the range of 140 to 142 °C.

For `O=c1[nH]c2ccccc2c(=O)n1Cc1cccnc1`, the melting point was 241 to 243 °C. In the case of `CS(=O)c1ccc(C2=NN(S(=O)(=O)c3ccc(I)cc3)CCC2)cc1` (stereo unspecified), the melting point fell in the range of 191 to 193 °C. Compound `Cc1cccnc1C(=O)NC(C)(C)C` came in with a melting point of 56 to 58 °C.

In turn, `O=C(O)c1ccccc1OCCN1CCC(c2cn(Cc3ccoc3)c3ncccc23)CC1` registered a melting point of 105 to 107 °C. On to `c1ccc(C2CN(CCCc3cccnc3)Cc3c2[nH]c2ccccc32)cc1` (stereo unspecified), for which the melting point lay within 204 to 206 °C.

`O=C(Nc1cc(OCCCON=Cc2ccc(-c3ccccc3)cc2)ccc1C(=O)O)c1ccc(OC(F)(F)F)cc1` showed a melting point of 188 °C.

For `COc1ccc(-c2cc(=O)n(CC3CC3)nc2-c2ccc(OC)cc2)cc1`, the melting point amounted to 129 °C.

In turn, `O=C(c1ccc(Cl)cc1)c1cc(C2(Nc3ccccc3)OCCO2)ccn1` came in with a melting point of 102 to 103 °C. As to `COc1ccc(C=O)nc1I`, the melting point lay within 118 to 121 °C.

`Cc1c(NC(=O)C(CSC(=O)c2ccccc2)Cc2ccccc2)cccc1C(=O)O` (stereo unspecified) returned a melting point of 204 to 205 °C. Under `ClCc1ccc(OCc2coc(-c3ccccc3)n2)cc1` stands 129 to 130 °C. For `Cn1c(CC(=O)NO)ccc1C(=O)c1ccc(Cl)cc1`, the melting point amounted to 195 °C.

Consider `C1=C(c2c[nH]c3ccccc23)CCN(CCCOc2cccc3[nH]ccc23)C1`, for which the melting point was in the range of 192 to 194 °C. In turn, `CCN1c2ncc(Cc3cccc(F)c3)cc2C(=O)N(C)c2ccc(Cl)nc21` registered a melting point of 104 to 105 °C.
